# Tests used:
# [1] = biological target: T1, Protein arginine N-methyltransferase 1 (Homo sapiens, UniProt Q99873); assay: Selectivity interaction (Scintillation proximity assay) EUB0000261b PRMT1
# [2] = biological target: Protein arginine N-methyltransferase 3 (Homo sapiens, UniProt O60678); assay: Selectivity interaction (Scintillation proximity assay) EUB0000261b PRMT3
# [3] = biological target: T2, Histone-arginine methyltransferase CARM1 (Homo sapiens, UniProt Q86X55); assay: Selectivity interaction (Scintillation proximity assay) EUB0000261b CARM1
# T2 sequence (Q86X55 whole entry): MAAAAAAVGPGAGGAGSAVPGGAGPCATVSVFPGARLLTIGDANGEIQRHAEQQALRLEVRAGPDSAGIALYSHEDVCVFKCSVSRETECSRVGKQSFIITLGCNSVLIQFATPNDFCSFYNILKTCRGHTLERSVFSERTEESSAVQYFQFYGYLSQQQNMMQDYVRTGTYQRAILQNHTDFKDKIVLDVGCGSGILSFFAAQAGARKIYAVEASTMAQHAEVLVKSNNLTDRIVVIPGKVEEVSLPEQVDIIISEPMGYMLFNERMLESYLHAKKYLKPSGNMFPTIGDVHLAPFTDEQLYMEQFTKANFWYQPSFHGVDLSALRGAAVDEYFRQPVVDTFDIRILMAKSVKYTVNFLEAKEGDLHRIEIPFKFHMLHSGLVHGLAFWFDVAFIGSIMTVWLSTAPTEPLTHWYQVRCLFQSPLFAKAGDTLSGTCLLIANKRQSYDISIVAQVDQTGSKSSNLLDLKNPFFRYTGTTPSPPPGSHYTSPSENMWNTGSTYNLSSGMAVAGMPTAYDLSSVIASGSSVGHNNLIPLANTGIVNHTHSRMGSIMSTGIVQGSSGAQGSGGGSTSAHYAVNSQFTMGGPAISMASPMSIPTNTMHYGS
# [4] = biological target: T3, Protein arginine N-methyltransferase 6 (Homo sapiens, UniProt Q96LA8); assay: Selectivity interaction (Scintillation proximity assay) EUB0000261b PRMT6
# [5] = biological target: Protein arginine N-methyltransferase 8 (Homo sapiens, UniProt Q9NR22); assay: Selectivity interaction (Scintillation proximity assay) EUB0000261b PRMT8
# [6] = biological target: T2, Histone-arginine methyltransferase CARM1; assay: Selectivity interaction (Western blot assay (PRMT4 dependent BAF155 asymmetric arginine dimethylation)) EUB0000236b CARM1
# [7] = biological target: Protein arginine N-methyltransferase 5 (Homo sapiens, UniProt O14744); assay: Selectivity interaction (Western blot assay (PRMT5 dependent SmB symmetric arginine dimethylation)) EUB0000236b PRMT5
# [8] = biological target: T1, Protein arginine N-methyltransferase 1; assay: Selectivity interaction (Western blot assay (PRMT1 dependent H4R3 asymmetric arginine dimethylation)) EUB0000236b PRMT1
# [9] = biological target: T3, Protein arginine N-methyltransferase 6; assay: Selectivity interaction (Western blot assay (PRMT6 dependent H4R3 asymmetric arginine dimethylation)) EUB0000236b PRMT6
# [10] = biological target: T4, Protein arginine N-methyltransferase 9 (Homo sapiens, UniProt Q6P2P2); assay: Selectivity interaction (Western blot assay (PRMT9 dependent SAP145 […] arginine dimethylation)) EUB0000236b PRMT9
# T4 sequence (Q6P2P2 whole entry): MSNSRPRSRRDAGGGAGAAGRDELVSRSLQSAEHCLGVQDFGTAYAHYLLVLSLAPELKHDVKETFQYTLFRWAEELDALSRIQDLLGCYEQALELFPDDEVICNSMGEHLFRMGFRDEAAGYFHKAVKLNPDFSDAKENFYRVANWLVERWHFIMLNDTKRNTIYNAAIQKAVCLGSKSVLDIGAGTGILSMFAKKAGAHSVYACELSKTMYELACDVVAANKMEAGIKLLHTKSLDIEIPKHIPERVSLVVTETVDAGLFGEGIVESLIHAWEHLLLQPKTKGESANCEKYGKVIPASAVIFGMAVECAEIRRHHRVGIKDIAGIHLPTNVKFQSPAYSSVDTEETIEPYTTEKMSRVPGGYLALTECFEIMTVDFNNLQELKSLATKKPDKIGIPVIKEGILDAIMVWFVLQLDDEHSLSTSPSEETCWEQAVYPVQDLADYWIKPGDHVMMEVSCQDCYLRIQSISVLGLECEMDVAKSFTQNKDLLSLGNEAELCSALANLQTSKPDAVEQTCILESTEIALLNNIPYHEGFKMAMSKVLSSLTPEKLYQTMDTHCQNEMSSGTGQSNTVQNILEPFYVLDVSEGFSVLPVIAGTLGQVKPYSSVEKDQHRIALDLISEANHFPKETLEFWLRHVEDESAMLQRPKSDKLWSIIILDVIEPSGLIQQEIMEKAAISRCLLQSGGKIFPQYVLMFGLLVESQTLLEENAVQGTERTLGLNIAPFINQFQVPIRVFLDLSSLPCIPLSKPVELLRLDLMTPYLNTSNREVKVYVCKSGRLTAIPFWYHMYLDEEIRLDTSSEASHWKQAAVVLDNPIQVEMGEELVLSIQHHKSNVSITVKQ
# [11] = biological target: Histone-lysine N-methyltransferase, H3 lysine-79 specific (Homo sapiens, UniProt Q8TEK3); assay: Selectivity interaction (Western blot assay (DOT1L dependent H3K79 lysine dimethylation) ) EUB0000236b DOT1L
# Histone-lysine N-methyltransferase, H3 lysine-79 specific, sequence (Q8TEK3 whole entry): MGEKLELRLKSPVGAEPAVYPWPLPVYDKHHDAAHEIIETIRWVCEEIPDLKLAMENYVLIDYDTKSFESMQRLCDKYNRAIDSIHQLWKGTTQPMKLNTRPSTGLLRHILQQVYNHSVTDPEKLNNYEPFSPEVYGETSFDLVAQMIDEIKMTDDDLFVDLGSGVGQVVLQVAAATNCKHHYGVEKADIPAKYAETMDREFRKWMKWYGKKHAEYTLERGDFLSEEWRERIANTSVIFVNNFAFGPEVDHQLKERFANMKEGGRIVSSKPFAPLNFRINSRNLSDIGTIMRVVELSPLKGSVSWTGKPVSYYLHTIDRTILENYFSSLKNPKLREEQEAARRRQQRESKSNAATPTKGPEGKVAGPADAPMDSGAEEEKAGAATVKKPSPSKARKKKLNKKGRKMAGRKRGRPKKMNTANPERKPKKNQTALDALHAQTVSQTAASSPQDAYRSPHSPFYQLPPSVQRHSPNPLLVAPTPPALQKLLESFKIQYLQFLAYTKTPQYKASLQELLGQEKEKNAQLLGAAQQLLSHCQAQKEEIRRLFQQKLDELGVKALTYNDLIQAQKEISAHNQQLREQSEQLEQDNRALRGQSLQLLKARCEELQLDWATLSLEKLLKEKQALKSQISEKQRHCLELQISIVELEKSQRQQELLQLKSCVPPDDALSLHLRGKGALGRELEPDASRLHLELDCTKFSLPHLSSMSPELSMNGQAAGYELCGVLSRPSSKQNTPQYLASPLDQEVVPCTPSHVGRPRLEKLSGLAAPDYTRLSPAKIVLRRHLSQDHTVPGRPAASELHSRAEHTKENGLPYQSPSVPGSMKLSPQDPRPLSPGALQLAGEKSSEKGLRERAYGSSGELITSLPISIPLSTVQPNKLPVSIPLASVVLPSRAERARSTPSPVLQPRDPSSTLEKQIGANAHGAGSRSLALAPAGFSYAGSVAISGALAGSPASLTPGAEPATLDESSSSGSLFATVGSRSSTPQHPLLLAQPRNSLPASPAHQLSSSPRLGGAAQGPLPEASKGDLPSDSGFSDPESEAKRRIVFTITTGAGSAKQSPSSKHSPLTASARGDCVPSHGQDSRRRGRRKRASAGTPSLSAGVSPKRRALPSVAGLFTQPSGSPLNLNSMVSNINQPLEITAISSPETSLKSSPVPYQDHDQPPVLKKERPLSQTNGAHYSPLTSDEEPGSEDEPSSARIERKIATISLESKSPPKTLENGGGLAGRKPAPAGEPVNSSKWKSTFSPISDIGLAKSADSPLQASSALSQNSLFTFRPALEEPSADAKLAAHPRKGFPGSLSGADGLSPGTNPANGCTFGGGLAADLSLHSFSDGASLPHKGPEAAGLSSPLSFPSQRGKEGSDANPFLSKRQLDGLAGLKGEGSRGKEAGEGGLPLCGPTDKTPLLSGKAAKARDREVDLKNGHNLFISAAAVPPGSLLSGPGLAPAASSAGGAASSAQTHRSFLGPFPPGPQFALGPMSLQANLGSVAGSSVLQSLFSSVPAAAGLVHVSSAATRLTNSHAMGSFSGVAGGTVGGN
# T3 sequence (Q96LA8 whole entry): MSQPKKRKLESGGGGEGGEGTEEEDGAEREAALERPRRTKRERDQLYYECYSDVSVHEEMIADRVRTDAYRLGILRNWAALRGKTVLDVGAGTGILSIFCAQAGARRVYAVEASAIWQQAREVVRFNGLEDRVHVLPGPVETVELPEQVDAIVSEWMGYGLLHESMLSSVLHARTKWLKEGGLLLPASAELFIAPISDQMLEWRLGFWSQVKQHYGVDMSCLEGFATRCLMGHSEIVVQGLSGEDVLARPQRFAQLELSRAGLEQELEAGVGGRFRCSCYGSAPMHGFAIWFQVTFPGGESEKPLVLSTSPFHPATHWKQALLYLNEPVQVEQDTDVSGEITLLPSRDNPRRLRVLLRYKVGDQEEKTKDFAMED
# T1 sequence (Q99873 whole entry): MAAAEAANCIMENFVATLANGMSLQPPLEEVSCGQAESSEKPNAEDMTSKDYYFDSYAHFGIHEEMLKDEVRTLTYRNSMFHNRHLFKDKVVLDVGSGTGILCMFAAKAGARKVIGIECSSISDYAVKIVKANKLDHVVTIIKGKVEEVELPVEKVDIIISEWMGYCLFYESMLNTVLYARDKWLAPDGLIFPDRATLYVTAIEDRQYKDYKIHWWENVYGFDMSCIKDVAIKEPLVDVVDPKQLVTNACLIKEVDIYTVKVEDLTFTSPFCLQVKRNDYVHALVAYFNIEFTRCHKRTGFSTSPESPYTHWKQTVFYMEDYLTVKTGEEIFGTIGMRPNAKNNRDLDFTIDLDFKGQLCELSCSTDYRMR
# Protein arginine N-methyltransferase 5, sequence (O14744 whole entry): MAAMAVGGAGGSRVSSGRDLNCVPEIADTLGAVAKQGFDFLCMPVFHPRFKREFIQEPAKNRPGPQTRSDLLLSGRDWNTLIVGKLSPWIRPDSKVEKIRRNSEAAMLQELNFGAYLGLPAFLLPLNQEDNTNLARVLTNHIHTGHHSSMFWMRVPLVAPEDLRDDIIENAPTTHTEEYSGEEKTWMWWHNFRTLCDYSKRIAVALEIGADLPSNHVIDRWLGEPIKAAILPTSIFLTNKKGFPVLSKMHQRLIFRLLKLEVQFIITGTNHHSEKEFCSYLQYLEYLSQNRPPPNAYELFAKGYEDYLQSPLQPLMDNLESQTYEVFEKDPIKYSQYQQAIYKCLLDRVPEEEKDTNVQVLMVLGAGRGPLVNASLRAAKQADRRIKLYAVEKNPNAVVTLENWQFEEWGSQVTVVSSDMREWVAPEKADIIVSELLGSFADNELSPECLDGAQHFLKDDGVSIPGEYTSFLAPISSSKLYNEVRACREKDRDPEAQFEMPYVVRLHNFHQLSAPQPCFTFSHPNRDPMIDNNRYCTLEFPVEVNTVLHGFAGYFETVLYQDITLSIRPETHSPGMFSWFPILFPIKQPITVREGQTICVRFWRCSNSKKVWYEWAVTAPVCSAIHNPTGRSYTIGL
# Protein arginine N-methyltransferase 8, sequence (Q9NR22 whole entry): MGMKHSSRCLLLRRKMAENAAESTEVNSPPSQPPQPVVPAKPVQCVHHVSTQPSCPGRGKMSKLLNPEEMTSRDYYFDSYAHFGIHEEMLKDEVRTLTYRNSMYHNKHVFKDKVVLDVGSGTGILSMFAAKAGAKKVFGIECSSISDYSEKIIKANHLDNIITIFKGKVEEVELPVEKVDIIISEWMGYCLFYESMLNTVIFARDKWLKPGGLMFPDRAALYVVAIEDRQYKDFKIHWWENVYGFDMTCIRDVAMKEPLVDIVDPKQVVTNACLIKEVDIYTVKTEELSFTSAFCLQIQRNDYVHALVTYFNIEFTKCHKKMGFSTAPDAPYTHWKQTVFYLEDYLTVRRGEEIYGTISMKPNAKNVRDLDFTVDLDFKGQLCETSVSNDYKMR
# Protein arginine N-methyltransferase 3, sequence (O60678 whole entry): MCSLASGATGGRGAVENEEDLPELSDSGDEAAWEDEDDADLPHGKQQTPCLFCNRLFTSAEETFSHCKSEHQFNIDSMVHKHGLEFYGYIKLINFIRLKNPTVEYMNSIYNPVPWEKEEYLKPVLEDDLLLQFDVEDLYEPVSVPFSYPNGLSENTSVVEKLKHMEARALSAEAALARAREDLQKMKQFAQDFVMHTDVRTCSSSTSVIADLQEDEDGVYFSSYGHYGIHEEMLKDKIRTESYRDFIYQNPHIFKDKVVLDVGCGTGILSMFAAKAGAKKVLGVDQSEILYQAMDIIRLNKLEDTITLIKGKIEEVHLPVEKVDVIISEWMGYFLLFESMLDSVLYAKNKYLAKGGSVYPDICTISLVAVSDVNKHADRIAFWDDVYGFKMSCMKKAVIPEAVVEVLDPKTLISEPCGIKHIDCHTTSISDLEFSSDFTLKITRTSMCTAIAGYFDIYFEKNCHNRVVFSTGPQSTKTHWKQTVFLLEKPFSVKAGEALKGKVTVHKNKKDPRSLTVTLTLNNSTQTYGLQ
IC50 [1],IC50 [2],IC50 [3],IC50 [4],IC50 [5],EC50 [6],EC50 [7],EC50 [8],EC50 [9],EC50 [10],EC50 [11],SMILES
> 20000 nM,> 20000 nM,> 20000 nM,> 20000 nM,> 20000 nM,–,–,–,–,–,–,CC(C)Oc1ccc(-c2c[nH]cc2CN(C)CCO)cc1
–,–,–,–,–,> 5 nM,> 5 nM,> 5 nM,> 5 nM,> 5 nM,> 5 nM,CC1=C(C)C(=O)C(C(C)(C)CC(=O)N(CCCCSC[C@H]2O[C@@H](n3cnc4c(N)ncnc43)[C@@H]3OC(C)(C)O[C@@H]32)Cc2cccc(-c3ccc(Cl)cc3)c2)=C(C)C1=O
